These results are taken from ChEMBL document CHEMBL1921770, “Synthesis and structure-activity relationship (SAR) of (5,7-disubstituted 3-phenylsulfonyl-pyrazolo[1,5-a]pyrimidin-2-yl)-methylamines as potent serotonin 5-HT(6) receptor (5-HT(6)R) antagonists” (J Med Chem, 2011).

Structures are written as SMILES. Calls of active or inactive are those of the source. The calls are words filed in the database; no cut-off is given here.

Data set [1] concerns the target T1, 5-hydroxytryptamine receptor 6 (Homo sapiens, UniProt P50406). The experiment in a line: Inhibition of human recombinant 5-HT6 receptor expressed in human HEK293 cells assessed as inhibition of serotonin-induced cAMP accumulation. The data set is classed as functional, cell-based.
The target in data set [2] is T1, 5-hydroxytryptamine receptor 6. The experiment in a line: Partial agonist activity at human recombinant 5-HT6 receptor expressed in human HEK293 cells assessed as inhibition of serotonin-induced cAMP accumulation. The data set is classed as functional, cell-based.
Data set [3] has the same target. The experiment in a line: Antagonist activity at human recombinant 5-HT6 receptor expressed in human HEK293 cells assessed as inhibition of serotonin-induced cAMP accumulation. The data set is classed as functional, cell-based. The note with it: read-out: pA2 (converted).
The target of data set [4] is T2, 5-hydroxytryptamine receptor 2C (Homo sapiens) (UniProt P28335).
T2 sequence (whole entry): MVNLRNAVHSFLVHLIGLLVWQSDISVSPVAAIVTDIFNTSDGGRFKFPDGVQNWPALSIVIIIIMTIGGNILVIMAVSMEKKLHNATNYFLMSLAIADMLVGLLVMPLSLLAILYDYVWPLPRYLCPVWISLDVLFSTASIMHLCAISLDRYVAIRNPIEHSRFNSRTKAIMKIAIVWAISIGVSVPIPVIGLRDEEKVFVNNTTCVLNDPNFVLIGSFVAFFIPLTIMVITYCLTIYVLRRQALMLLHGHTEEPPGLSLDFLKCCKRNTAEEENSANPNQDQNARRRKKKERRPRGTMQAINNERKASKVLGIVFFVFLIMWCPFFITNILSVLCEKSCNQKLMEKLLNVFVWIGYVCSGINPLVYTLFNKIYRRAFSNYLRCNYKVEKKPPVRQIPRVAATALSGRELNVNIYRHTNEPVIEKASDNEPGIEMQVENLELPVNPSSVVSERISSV
The experiment in a line: Inhibition of serotonin 5-HT2C receptor at 1 uM by ligand displacement assay.

Data set [5] in a line: Inhibition of dopamine D4.7 receptor at 1 uM by ligand displacement assay.
In data set [6] the target is D(1B) dopamine receptor (Homo sapiens) (UniProt P21918). The experiment in a line: Inhibition of dopamine D5 receptor at 1 uM by ligand displacement assay.
The target of data set [7] is Adenosine receptor A3 (Homo sapiens) (UniProt P0DMS8). The experiment in a line: Inhibition of adenosine A3 receptor at 1 uM by ligand displacement assay.
A short description of data set [8]: Inhibition of adrenergic alpha1 receptor at 1 uM by ligand displacement assay.
Data set [9] has as its target Histamine H3 receptor (Homo sapiens) (UniProt Q9Y5N1). The experiment in a line: Inhibition of histamine H3 receptor at 1 uM by ligand displacement assay.
Data set [10] has as its target 5-hydroxytryptamine receptor 1B (Homo sapiens) (UniProt P28222). The experiment in a line: Inhibition of serotonin 5-HT1B receptor at 1 uM by ligand displacement assay.
Data set [11] concerns the target 5-hydroxytryptamine receptor 3A (Homo sapiens) (UniProt P46098). The experiment in a line: Inhibition of serotonin 5-HT3 receptor at 1 uM by ligand displacement assay.
Data set [12] deals with Muscarinic acetylcholine receptor M1 (Homo sapiens) (UniProt P11229). The experiment in a line: Inhibition of muscarinic M1 receptor at 1 uM by ligand displacement assay.
Data set [13] addresses Histamine H1 receptor (Homo sapiens) (UniProt P35367). The experiment in a line: Inhibition of histamine H1 receptor at 1 uM by ligand displacement assay.
The target of data set [14] is Muscarinic acetylcholine receptor M3 (Homo sapiens) (UniProt P20309). The experiment in a line: Inhibition of muscarinic M3 receptor at 1 uM by ligand displacement assay.
Data set [15] has as its target D(4) dopamine receptor (Homo sapiens) (UniProt P21917). The experiment in a line: Inhibition of dopamine D4.4 receptor at 1 uM by ligand displacement assay.
The target of data set [16] is D(1A) dopamine receptor (Homo sapiens) (UniProt P21728). The experiment in a line: Inhibition of dopamine D1 receptor at 1 uM by ligand displacement assay.
Data set [17] in a line: Inhibition of adrenergic beta receptor at 1 uM by ligand displacement assay.
Data set [18] has as its target Adenosine receptor A1 (Homo sapiens) (UniProt P30542). The experiment in a line: Inhibition of adenosine A1 receptor at 1 uM by ligand displacement assay.
For data set [19], the target named is Histamine H2 receptor (Homo sapiens) (UniProt P25021). The experiment in a line: Inhibition of histamine H2 receptor at 1 uM by ligand displacement assay.
The target in data set [20] is D(2) dopamine receptor (Homo sapiens) (UniProt P14416). The experiment in a line: Inhibition of dopamine D2S receptor at 1 uM by ligand displacement assay.
Data set [21] has as its target Adenosine receptor A2a (Homo sapiens) (UniProt P29274). The experiment in a line: Inhibition of adenosine A2A receptor at 1 uM by ligand displacement assay.
Data set [22] concerns the target 5-hydroxytryptamine receptor 5A (Homo sapiens) (UniProt P47898). The experiment in a line: Inhibition of serotonin 5-HT5A receptor at 1 uM by ligand displacement assay.
The target in data set [23] is 5-hydroxytryptamine receptor 2A (Homo sapiens) (UniProt P28223). The experiment in a line: Inhibition of serotonin 5-HT2A receptor at 1 uM by ligand displacement assay.
Data set [24] has as its target Alpha-2A adrenergic receptor (Homo sapiens) (UniProt P08913). The experiment in a line: Inhibition of adrenergic alpha2 receptor at 1 uM by ligand displacement assay.
Data set [25] has as its target 5-hydroxytryptamine receptor 2B (Homo sapiens) (UniProt P41595). The experiment in a line: Displacement of[3H]lysergic acid […] 5-HT2B receptor at 1 uM by ligand displacement assay.
The nature of data set [26]: Inhibition of dopamine D4.2 receptor at 1 uM by ligand displacement assay.
For data set [27], the target named is 5-hydroxytryptamine receptor 1A (Homo sapiens) (UniProt P08908). The experiment in a line: Inhibition of serotonin 5-HT1A receptor at 1 uM by ligand displacement assay.
The target in data set [28] is D(3) dopamine receptor (Homo sapiens) (UniProt P35462). The experiment in a line: Inhibition of dopamine D3 receptor at 1 uM by ligand displacement assay.
Data set [29] concerns the target Muscarinic acetylcholine receptor M4 (Homo sapiens) (UniProt P08173). The experiment in a line: Inhibition of muscarinic M4 receptor at 1 uM by ligand displacement assay.
Data set [30] concerns the target T1, 5-hydroxytryptamine receptor 6. The experiment in a line: Displacement of[3H]lysergic acid […] from 5-HT6 receptor at 1 uM by ligand displacement assay.
Data set [31] addresses 5-hydroxytryptamine receptor 4 (Homo sapiens) (UniProt Q13639). The experiment in a line: Inhibition of serotonin 5-HT4 receptor at 1 uM by ligand displacement assay.
Data set [32] has as its target 5-hydroxytryptamine receptor 7 (Homo sapiens) (UniProt P34969). The experiment in a line: Inhibition of serotonin 5-HT7 receptor at 1 uM by ligand displacement assay.
Data set [33] deals with Adenosine receptor A2b (Homo sapiens) (UniProt P29275). The experiment in a line: Inhibition of adenosine A2B receptor at 1 uM by ligand displacement assay.
For data set [34], the target named is Voltage-gated inwardly rectifying potassium channel KCNH2 (Homo sapiens, UniProt Q12809). The experiment in a line: Inhibition of human Erg at 1 uM by ligand displacement assay.
For data set [35], the target named is Muscarinic acetylcholine receptor M2 (Homo sapiens) (UniProt P08172). The experiment in a line: Inhibition of muscarinic M2 receptor at 1 uM by ligand displacement assay.

T1 sequence (P50406 whole entry): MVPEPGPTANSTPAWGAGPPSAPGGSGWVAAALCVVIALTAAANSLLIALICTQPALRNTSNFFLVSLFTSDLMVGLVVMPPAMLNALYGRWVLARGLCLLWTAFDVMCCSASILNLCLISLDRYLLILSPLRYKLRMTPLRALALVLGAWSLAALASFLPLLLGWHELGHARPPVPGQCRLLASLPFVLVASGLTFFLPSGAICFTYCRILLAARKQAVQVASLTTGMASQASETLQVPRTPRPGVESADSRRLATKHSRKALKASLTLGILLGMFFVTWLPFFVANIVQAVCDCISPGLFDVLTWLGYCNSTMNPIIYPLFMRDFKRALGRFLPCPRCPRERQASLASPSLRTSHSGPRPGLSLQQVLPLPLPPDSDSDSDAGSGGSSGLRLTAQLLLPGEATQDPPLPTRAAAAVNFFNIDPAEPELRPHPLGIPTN
5-hydroxytryptamine receptor 1B (Homo sapiens), sequence (P28222 whole entry): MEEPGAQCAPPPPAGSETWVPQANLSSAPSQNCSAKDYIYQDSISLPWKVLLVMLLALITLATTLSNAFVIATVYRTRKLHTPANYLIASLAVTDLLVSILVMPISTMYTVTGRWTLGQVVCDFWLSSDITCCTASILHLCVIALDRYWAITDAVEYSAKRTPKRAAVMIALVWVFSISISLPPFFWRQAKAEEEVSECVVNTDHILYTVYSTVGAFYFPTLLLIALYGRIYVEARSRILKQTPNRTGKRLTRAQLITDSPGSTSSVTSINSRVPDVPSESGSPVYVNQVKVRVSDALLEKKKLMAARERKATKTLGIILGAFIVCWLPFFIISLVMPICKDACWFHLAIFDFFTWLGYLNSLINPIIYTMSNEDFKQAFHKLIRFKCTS
Muscarinic acetylcholine receptor M1 (Homo sapiens), sequence (P11229 whole entry): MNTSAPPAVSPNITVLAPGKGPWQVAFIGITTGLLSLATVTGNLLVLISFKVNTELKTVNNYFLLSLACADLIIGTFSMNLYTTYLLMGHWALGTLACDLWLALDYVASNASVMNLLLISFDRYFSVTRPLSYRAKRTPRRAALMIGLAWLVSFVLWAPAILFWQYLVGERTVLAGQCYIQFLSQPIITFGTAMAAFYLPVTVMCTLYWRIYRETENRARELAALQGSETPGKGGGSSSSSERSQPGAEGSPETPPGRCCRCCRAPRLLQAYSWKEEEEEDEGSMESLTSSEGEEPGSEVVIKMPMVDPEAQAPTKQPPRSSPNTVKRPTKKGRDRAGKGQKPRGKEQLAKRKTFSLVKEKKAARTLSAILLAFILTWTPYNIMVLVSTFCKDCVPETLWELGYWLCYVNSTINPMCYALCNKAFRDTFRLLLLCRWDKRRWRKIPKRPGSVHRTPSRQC
D(1A) dopamine receptor (Homo sapiens), sequence (P21728 whole entry): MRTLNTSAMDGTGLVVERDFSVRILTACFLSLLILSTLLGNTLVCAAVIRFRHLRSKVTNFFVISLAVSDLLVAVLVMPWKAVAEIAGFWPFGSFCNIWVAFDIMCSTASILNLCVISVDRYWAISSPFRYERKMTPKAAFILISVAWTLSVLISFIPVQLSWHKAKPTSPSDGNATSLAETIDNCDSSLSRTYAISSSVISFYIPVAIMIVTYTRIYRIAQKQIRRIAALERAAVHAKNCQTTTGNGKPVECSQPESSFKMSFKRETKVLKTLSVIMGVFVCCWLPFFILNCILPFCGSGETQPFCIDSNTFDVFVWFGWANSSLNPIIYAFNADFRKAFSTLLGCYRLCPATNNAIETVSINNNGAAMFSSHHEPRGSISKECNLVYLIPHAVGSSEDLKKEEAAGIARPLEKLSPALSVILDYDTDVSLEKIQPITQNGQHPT
Voltage-gated inwardly rectifying potassium channel KCNH2, sequence (Q12809 whole entry): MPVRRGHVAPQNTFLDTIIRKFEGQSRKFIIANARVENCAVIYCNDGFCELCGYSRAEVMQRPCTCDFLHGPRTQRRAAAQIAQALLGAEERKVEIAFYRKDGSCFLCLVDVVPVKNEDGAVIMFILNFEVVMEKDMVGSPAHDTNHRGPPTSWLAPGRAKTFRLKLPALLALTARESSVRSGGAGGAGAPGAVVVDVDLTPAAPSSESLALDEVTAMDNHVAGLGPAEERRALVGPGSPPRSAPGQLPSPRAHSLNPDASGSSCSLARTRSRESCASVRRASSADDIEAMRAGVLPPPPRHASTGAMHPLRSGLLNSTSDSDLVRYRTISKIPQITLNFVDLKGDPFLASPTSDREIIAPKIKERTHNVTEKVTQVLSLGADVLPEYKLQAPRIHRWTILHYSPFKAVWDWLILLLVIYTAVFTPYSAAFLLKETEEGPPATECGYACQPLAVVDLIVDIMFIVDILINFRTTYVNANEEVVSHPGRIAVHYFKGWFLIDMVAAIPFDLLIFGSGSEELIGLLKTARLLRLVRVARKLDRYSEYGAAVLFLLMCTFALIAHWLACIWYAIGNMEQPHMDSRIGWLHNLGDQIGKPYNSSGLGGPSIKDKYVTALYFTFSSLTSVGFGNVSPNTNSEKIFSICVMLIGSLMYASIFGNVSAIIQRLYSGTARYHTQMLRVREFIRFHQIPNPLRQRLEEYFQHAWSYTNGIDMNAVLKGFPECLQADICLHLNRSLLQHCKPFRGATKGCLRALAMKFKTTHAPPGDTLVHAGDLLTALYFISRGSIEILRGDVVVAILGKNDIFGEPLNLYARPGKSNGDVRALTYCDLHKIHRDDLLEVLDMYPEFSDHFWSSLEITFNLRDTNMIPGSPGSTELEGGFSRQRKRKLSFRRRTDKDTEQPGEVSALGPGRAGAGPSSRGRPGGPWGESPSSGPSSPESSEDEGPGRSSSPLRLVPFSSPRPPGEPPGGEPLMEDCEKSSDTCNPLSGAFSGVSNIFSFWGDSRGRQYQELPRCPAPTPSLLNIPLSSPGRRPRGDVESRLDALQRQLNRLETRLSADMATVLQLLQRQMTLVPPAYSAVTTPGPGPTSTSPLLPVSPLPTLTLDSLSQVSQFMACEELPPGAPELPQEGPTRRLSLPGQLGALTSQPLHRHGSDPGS
Alpha-2A adrenergic receptor (Homo sapiens), sequence (P08913 whole entry): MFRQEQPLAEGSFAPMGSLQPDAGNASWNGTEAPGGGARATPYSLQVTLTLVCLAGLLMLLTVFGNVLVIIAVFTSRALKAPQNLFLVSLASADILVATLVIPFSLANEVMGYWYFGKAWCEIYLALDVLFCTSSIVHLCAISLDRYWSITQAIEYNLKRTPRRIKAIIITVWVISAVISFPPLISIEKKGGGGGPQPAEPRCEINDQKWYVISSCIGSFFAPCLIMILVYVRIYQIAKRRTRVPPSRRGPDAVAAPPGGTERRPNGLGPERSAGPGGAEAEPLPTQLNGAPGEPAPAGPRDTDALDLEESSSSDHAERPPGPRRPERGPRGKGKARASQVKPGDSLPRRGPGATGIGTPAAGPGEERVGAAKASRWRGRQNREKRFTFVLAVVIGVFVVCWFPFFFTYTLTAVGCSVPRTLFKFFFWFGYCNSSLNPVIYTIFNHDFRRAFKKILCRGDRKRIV
D(4) dopamine receptor (Homo sapiens), sequence (P21917 whole entry): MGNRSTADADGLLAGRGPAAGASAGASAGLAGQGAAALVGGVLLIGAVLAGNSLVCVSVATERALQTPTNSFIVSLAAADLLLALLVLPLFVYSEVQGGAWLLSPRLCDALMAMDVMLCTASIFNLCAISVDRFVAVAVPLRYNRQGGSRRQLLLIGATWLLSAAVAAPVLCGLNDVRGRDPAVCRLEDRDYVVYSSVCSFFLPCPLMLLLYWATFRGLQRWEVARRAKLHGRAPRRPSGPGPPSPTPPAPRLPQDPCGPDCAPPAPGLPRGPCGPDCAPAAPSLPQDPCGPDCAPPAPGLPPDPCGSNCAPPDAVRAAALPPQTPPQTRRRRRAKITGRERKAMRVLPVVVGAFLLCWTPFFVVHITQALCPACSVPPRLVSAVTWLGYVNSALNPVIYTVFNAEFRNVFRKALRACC
D(1B) dopamine receptor (Homo sapiens), sequence (P21918 whole entry): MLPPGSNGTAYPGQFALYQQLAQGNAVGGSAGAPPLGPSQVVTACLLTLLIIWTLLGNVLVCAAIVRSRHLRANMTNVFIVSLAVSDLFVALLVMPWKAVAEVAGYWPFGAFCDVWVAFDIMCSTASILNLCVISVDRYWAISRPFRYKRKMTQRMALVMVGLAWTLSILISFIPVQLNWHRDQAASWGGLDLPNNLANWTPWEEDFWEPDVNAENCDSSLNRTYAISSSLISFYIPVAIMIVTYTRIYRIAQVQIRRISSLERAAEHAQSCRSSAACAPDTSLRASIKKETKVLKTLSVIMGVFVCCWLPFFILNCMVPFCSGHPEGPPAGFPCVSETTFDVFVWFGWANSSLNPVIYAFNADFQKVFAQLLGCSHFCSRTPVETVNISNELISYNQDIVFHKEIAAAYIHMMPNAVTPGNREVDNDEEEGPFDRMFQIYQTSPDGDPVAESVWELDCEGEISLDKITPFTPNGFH
5-hydroxytryptamine receptor 1A (Homo sapiens), sequence (P08908 whole entry): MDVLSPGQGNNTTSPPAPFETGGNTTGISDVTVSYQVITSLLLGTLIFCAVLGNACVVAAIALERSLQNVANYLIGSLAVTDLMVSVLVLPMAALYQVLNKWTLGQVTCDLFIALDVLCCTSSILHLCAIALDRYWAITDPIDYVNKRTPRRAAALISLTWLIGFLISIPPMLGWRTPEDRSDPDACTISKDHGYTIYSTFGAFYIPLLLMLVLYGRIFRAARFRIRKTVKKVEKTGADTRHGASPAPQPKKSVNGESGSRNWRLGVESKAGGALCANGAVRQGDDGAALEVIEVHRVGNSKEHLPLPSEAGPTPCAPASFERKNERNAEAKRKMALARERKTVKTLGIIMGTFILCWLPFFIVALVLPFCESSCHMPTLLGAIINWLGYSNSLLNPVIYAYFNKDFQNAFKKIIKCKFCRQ
Adenosine receptor A3 (Homo sapiens), sequence (P0DMS8 whole entry): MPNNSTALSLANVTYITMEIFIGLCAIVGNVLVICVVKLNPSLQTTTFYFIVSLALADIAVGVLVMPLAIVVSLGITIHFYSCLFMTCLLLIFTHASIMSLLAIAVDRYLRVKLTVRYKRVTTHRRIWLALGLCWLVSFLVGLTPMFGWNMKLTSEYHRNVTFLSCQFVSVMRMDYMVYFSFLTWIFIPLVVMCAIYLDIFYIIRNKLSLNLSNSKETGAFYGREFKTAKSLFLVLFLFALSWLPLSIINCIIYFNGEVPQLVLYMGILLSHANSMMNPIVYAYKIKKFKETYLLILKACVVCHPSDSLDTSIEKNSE

In the case of `CNc1nn2c(C)c(NC(C)=O)c(C)nc2c1S(=O)(=O)c1ccccc1`, the Ki in [1] (read-out: pKi (converted)) was 4.68 nM.
Turning to `CNc1nn2c(N3CCOCC3)cc(C)nc2c1S(=O)(=O)c1ccccc1`, the Ki in [1] (read-out: pKi (converted)) was 16.6 nM.
`CNc1nn2c(CCN(C)C)cc(C)nc2c1S(=O)(=O)c1ccccc1`: the Ki in data set [2] was 33.9 nM.
For `CNc1nn2c(N(C)C)cc(C)nc2c1S(=O)(=O)c1ccccc1`, the Ki in data set [1] (read-out: pKi (converted)) is 0.347 nM.
Still for that read-out and setting: in the case of `CNc1nn2c(CN)cc(C)nc2c1S(=O)(=O)c1ccccc1` it was 1.86 nM; in that of `CNc1nn2c(C)c(CN(C)C)c(C)nc2c1S(=O)(=O)c1cccc(F)c1`, 0.891 nM.
On the same count and under the same terms, in the case of `CNc1nn2c(NCCN(C)C)cc(C)nc2c1S(=O)(=O)c1ccccc1` it was 69.2 nM.
Regarding `CNc1nn2c(CCN)cc(C)nc2c1S(=O)(=O)c1ccccc1`, in data set [3], the Kb was 3.98 nM. Besides, the Ki in data set [2] was 3.09 nM.
Regarding `CNc1nn2c(C)c(CN)c(C)nc2c1S(=O)(=O)c1cccc(Cl)c1`, the Ki in [1] (read-out: pKi (converted)) is 0.55 nM.
With `CNc1nn2c(C)c(N(C)C)c(C)nc2c1S(=O)(=O)c1ccccc1`, the inhibition result in data set [4] was “inactive”. Besides, the Ki in data set [1] (read-out: pKi (converted)) was 0.209 nM.
In the case of `CNc1nn2c(C)c(CCN(C)C)c(C)nc2c1S(=O)(=O)c1ccccc1`, the Ki in data set [1] (read-out: pKi (converted)) is 2.09 nM.
In the case of `CSc1nn2c(N3CCNCC3)c3c(nc2c1S(=O)(=O)c1ccccc1)CCC3`, the Ki in data set [1] (read-out: Ki) is 0.85 nM.
For the compound `CNc1nn2c(NCCCN(C)C)cc(C)nc2c1S(=O)(=O)c1ccccc1`, the Ki in data set [1] (read-out: Ki) was found to be 112 nM.
As to `CNc1nn2c(C)cc(C)nc2c1S(=O)(=O)c1ccccc1`, the Ki in data set [1] (read-out: pKi (converted)) is 0.263 nM.
For the compound `CNc1nn2c(N)c(Cl)c(C)nc2c1S(=O)(=O)c1cccc(Cl)c1`, the Ki in data set [1] (read-out: pKi (converted)) was 18.6 nM.
For the compound `CNc1nn2c(N)c(Cl)c(C)nc2c1S(=O)(=O)c1ccccc1`, the Ki in data set [1] (read-out: Ki) turned out to be 0.14 nM.
`CNc1nn2c(C)cc(CN)nc2c1S(=O)(=O)c1ccccc1`: the inhibition entry in [4] is “inactive”. Further, the Ki in [1] (read-out: pKi (converted)) was 0.977 nM.
On to `CNc1nn2c(NC)cc(C)nc2c1S(=O)(=O)c1ccccc1`, for which, in [1] (read-out: pKi (converted)), the Ki was 0.575 nM.
Same read-out and setting: for `CNc1nn2c(C)c(CN(C)C)c(C)nc2c1S(=O)(=O)c1cccc(Cl)c1` the value was 0.417 nM.
In the case of `CNc1nn2c(N)cc(C)nc2c1S(=O)(=O)c1ccccc1`, the inhibition entry in data set [5], in data set [6], in [7], in data set [8], in data set [9] and in [10] was “inactive” each time. The inhibition entry in data set [11], in [12], in [13], in data set [14], in data set [15] and in [16] was “inactive” each time. The inhibition entry in data set [17], in data set [18], in data set [19], in [20], in data set [21] and in data set [22] was “inactive” in each case. In addition, the inhibition entry in data set [23], in data set [24], in data set [25], in data set [26], in data set [27] and in data set [28] was “inactive” throughout. For the same compound, the inhibition entry in data set [29], in data set [31], in data set [32], in data set [33] and in data set [35] was “inactive” each time. Further, the inhibition was 50% in [4] and 100% in data set [30]. Moreover, in data set [1] (read-out: pKi (converted)), the Ki is 0.302 nM. Also, the Kb in [3] is 0.501 nM. Further, the “inhibition (INH)” value in data set [34] is “Not Active”.
With `CNc1nn2c(C)c(N)c(C)nc2c1S(=O)(=O)c1ccccc1`, in data set [4], the inhibition result was “inactive”. In addition, in [1] (read-out: pKi (converted)), the Ki was 0.525 nM. The Kb in [3] is 0.398 nM.
In the case of `CNc1nn2c(CN(C)C)cc(C)nc2c1S(=O)(=O)c1ccccc1`, the Ki in [1] (read-out: pKi (converted)) is 1.82 nM.
On the same count and under the same terms, in the case of `CNc1nn2c(N(C)CCN(C)C)cc(C)nc2c1S(=O)(=O)c1ccccc1` it was 22.4 nM.
Still for that read-out and setting: in the case of `CNc1nn2c(C)c(CN)c(C)nc2c1S(=O)(=O)c1ccccc1` it was 0.646 nM.
On to `CNc1nn2c(C)c(CN(C)C)c(C)nc2c1S(=O)(=O)c1ccccc1`, for which the Ki in data set [1] (read-out: pKi (converted)) is 0.708 nM.
As for `CNc1nn2c(N)cc(C)nc2c1S(=O)(=O)c1cccc(Cl)c1`, the Ki in [1] (read-out: pKi (converted)) was 0.219 nM.
